These results are taken from US20100137396A1, “TREATMENT OF ESOPHAGEAL HIGH GRADE DYSPLASIA USING PHOTODYNAMIC THERAPY” (Health Research, Inc, priority 2007, published 2010).

For series [1], the system named is esophageal high grade dysplasia. The conditions noted are these: 2 mg/kg body weight, 630 nm, optimized light exposure; cited from earlier work.
The conditions of series [2]: cited from earlier work.
The conditions of series [3]: treatment concentration of 2 mg/kg; cited from earlier work.
Series [4] in a line: Normal tissue damage after photodynamic therapy (strictures; erythema, edema and necrosis). In kind it is in vivo, human. The settings on record: after first PDT treatment. How it is done: Nevertheless, PHOTOFRIN™ at an optimized dose level of 2 mg/kg body weight and activation at its preferential light absorption wavelength of 630 nm, and optimized light exposure results in a first treatment complete cure rate of about 32 percent and a two treatment complete cure rate of about 58 percent and a three treatment complete cure rate of about 77 percent. Unfortunately, the treatment also results in significant damage to surrounding normal tissue. Normal tissue damage for PHOTOFRIN™, as measured by percent of strictures at only a single treatment is about 12% and using other reported data concerning PHOTOFRIN™ treatment, is greater than 20 percent based upon toxicity as determined by the presence of erythema, edema and necrosis.
(§1) Using the above parameters, a phase I/II trial using HPPH and a phase III trial using PHOTOFRIN™, the latter approved by the United States Food and Drug Administration, the following results for response of high grade dysplasia were obtained, with CR being defined as complete ablation of high grade dysplasia.

Series [5] concerns esophageal high grade dysplasia. Nature of the series: Photodynamic therapy trials, response of high grade dysplasia (phase I/II HPPH, phase III PHOTOFRIN). In kind it is in vivo, human. The conditions noted are these: for Response After First Treatment, CR (complete ablation of high grade dysplasia): after first PDT treatment, patients with high grade dysplasia; for Response After Second Treatment, expected cure rate / Response After Third Treatment, expected cure rate: calculated from first-treatment rate applied to remaining uncured. On the procedure: The method of the invention includes the steps of: • injecting HPPH in a physiologically compatible medium into a patient having high grade esophageal dysplasia to provide a dose level of 3 through 5 mg/m^2 of body surface area, preferably 3 through 4 mg/m^2 of body surface area. • waiting for a time period of 24 through 60 hours to permit preferential absorption of the HPPH into the high grade dysplasia tissue, and • exposing the esophageal high grade dysplasia tissue to light at a wavelength of about 670±5 nm at an energy of from about 75 to about 200 Joules/cm, preferably 75 to about 150 Joules/cm.
Injection of the HHPH is preferably accomplished intravenously usually over a time period of 0.75 to 3 hours in a physiologically compatible medium. The time period is functionally dependent upon rate of infusion and dose level desired The concentration is preferably 0.5-through 1.5 mg/ml in medium and the medium is preferably 0.1% polysorbate 80, 2% ethyl alcohol and 5% glucose in normal saline.
Exposure is accomplished using a fiber optic carrying laser light emitted by a laser. The laser may be any suitable laser emitting light at the wavelength and energy desired, e.g. a dye or diode laser. Exposure may be adjusted by length of time of exposure and/or adjustment of light intensity.
as §1

For porfimer sodium [PHOTOFRIN ™], in series [1], the “first treatment complete cure rate” value was “about 32%”, the “three treatment complete cure rate” value is reported as “about 77%” and the “two treatment complete cure rate” value is listed as “about 58%”. Moreover, the “Normal tissue damage as measured by percent of strictures” value in series [2] (at only a single treatment) was “about 12%”. For the same substance, the “Normal tissue damage based upon toxicity as determined by the presence of erythema, edema and necrosis” value in series [2] (other reported data concerning PHOTOFRIN treatment) is recorded as “greater than 20%”. The phototoxicity entry in series [3] is recorded as “can cause serious phototoxicity”. In addition, the “First Treatment Normal Tissue Damage, strictures” value in series [4] turned out to be 12% strictures. In series [5], the “Response After First Treatment, CR (complete ablation of high grade dysplasia)” value came out at 32% CR; the “Response After Second Treatment, expected cure rate” value is listed as 54% expected cure rate (based upon; the “Response After Third Treatment, expected cure rate” value is 71% expected cure rate (based upon. The “Response After Second Treatment, cure rate (observed)” value in series [5] (after second PDT treatment) is recorded as 58% cure rate (observed). The “Response After Third Treatment, cure rate (observed)” value in series [5] (after third PDT treatment) is given as 77% cure rate (observed).

Regarding “3-(1-hexyloxy) ethyl-derivative of pyropheophorbide-a [HPPH]”, the “First Treatment Normal Tissue Damage, strictures” value in series [4] amounted to 3% strictures. In series [5] (3 to 5 mg/m^2 of body surface area, light at 670±5 nm), the “effectiveness against high grade dysplasia and side effects compared with PHOTOFRIN” value is “more effective against high grade dysplasia with fewer side effects than PHOTOFRIN™”. In series [5], the “Response After First Treatment, CR (complete ablation of high grade dysplasia)” value was found to be 49% CR; the “Response After Second Treatment, expected cure rate” value was 74% expected cure rate; the “Response After Third Treatment, expected cure rate” value is listed as 87% expected cure rate (based.
